Tests used:
[1] = Cytotoxicity against mouse spleen lymphocytes assessed as cell viability at 1 mg/mL after 48 hrs by MTT assay relative to control; type: tissue-based, Lymphocyte; conditions: read-out: Activity
HCT-116 = experiment: Growth inhibition of human HCT116 cells at 1 mg/mL after 48 hrs by MTT assay; type: functional; conditions: HCT-116, 48 h, read-out: GI

Cc1nn(-c2ccccc2)c2c1C(c1ccc3c(c1)OCO3)SCC(=O)N2 (configuration not stated)
viability at 48 h, 1 mg/mL [1]: 66.9% | inhibition of growth at 1000 µg/mL (HCT-116): 51.3%

COc1ccc(C2SCC(=O)Nc3c2c(C)nn3-c2ccccc2)cc1 (configuration not stated)
viability at 48 h, 1 mg/mL [1]: 78.8% | inhibition of growth at 1000 µg/mL (HCT-116): 57.8%

CCn1c2ccccc2c2c3c(ccc21)NC(=O)CSC3c1ccc(C)cc1 (configuration not stated)
viability at 48 h, 1 mg/mL [1]: 93.2% | inhibition of growth at 1000 µg/mL (HCT-116): 53.4%

CCn1c2ccccc2c2c3c(ccc21)NC(=O)CSC3c1ccc(OC)cc1 (configuration not stated)
viability at 48 h, 1 mg/mL [1]: 51.4% | inhibition of growth at 1000 µg/mL (HCT-116): 58.9%

CCn1c2ccccc2c2c3c(ccc21)NC(=O)CSC3c1ccc2c(c1)OCO2 (configuration not stated)
viability at 48 h, 1 mg/mL [1]: 158% | inhibition of growth at 1000 µg/mL (HCT-116): 51.6%

CCn1c2ccccc2c2c3c(ccc21)NC(=O)CSC3c1ccc(OC)c(OC)c1 (configuration not stated)
viability at 48 h, 1 mg/mL [1]: 101% | inhibition of growth at 1000 µg/mL (HCT-116): 56.2%

CCn1c2ccccc2c2c3c(ccc21)NC(=O)CSC3c1cccs1 (configuration not stated)
viability at 48 h, 1 mg/mL [1]: 45% | inhibition of growth at 1000 µg/mL (HCT-116): 60.3%

CCn1c2ccccc2c2c3c(ccc21)NC(=O)CSC3c1ccc(Br)cc1 (configuration not stated)
viability at 48 h, 1 mg/mL [1]: 136% | inhibition of growth at 1000 µg/mL (HCT-116): 62%

COc1ccc(C2SCC(=O)Nc3ccc4[nH]ncc4c32)cc1 (configuration not stated)
viability at 48 h, 1 mg/mL [1]: 44.8% | inhibition of growth at 1000 µg/mL (HCT-116): 61.8%

Cc1ccc(C2SCC(=O)Nc3ccc4[nH]ncc4c32)cc1 (configuration not stated)
viability at 48 h, 1 mg/mL [1]: 20.5% | inhibition of growth at 1000 µg/mL (HCT-116): 66.8%

O=C1CSC(c2ccc3c(c2)OCO3)c2c(ccc3[nH]ccc23)N1 (configuration not stated)
viability at 48 h, 1 mg/mL [1]: 155% | inhibition of growth at 1000 µg/mL (HCT-116): 55.9%

COc1cc(C2SCC(=O)Nc3ccc4[nH]ncc4c32)cc(OC)c1OC (configuration not stated)
viability at 48 h, 1 mg/mL [1]: 166% | inhibition of growth at 1000 µg/mL (HCT-116): 58.2%

O=C1CSC(c2ccc(Br)cc2)c2c(ccc3[nH]ncc23)N1 (configuration not stated)
viability at 48 h, 1 mg/mL [1]: 42.6% | inhibition of growth at 1000 µg/mL (HCT-116): 63.4%

O=C1CSC(c2ccc(Cl)cc2)c2c(ccc3[nH]ncc23)N1 (configuration not stated)
viability at 48 h, 1 mg/mL [1]: 67.9% | inhibition of growth at 1000 µg/mL (HCT-116): 60.9%

Cc1ccc(C2SCC(=O)Nc3c2c(C)nn3-c2ccccc2)cc1 (configuration not stated)
viability at 48 h, 1 mg/mL [1]: 25.7% | inhibition of growth at 1000 µg/mL (HCT-116): 58.4%

Cc1nn(-c2ccccc2)c2c1C(c1ccc(Cl)cc1)SCC(=O)N2 (configuration not stated)
viability at 48 h, 1 mg/mL [1]: 82.3% | inhibition of growth at 1000 µg/mL (HCT-116): 50.2%

Cc1nn(-c2ccccc2)c2c1C(c1ccccc1Cl)SCC(=O)N2 (configuration not stated)
viability at 48 h, 1 mg/mL [1]: 68.7% | inhibition of growth at 1000 µg/mL (HCT-116): 55.3%

Cc1nn(-c2ccccc2)c2c1C(c1ccc(Cl)cc1Cl)SCC(=O)N2 (configuration not stated)
viability at 48 h, 1 mg/mL [1]: 156% | inhibition of growth at 1000 µg/mL (HCT-116): 53.3%

Cc1ccc(C2SCC(=O)Nc3onc(C)c32)cc1 (configuration not stated)
viability at 48 h, 1 mg/mL [1]: 103% | inhibition of growth at 1000 µg/mL (HCT-116): 64.7%

Cc1noc2c1C(c1ccc3c(c1)OCO3)SCC(=O)N2 (configuration not stated)
viability at 48 h, 1 mg/mL [1]: 87.2% | inhibition of growth at 1000 µg/mL (HCT-116): 50.4%

COc1ccc(C2SCC(=O)Nc3onc(C)c32)cc1OC (configuration not stated)
viability at 48 h, 1 mg/mL [1]: 165% | inhibition of growth at 1000 µg/mL (HCT-116): 54.6%

Cc1noc2c1C(c1cccs1)SCC(=O)N2 (configuration not stated)
viability at 48 h, 1 mg/mL [1]: 160% | inhibition of growth at 1000 µg/mL (HCT-116): 62.6%

Cc1nn(-c2ccccc2)c2c1C(c1cccc([N+](=O)[O-])c1)SCC(=O)N2 (configuration not stated)
viability at 48 h, 1 mg/mL [1]: 154% | inhibition of growth at 1000 µg/mL (HCT-116): 54.3%

COc1ccc(C2SCC(=O)Nc3onc(C)c32)cc1 (configuration not stated)
viability at 48 h, 1 mg/mL [1]: 165% | inhibition of growth at 1000 µg/mL (HCT-116): 60.3%

Cc1noc2c1C(c1ccccc1Cl)SCC(=O)N2 (configuration not stated)
viability at 48 h, 1 mg/mL [1]: 170% | inhibition of growth at 1000 µg/mL (HCT-116): 54.6%

Cc1noc2c1C(c1ccc(Br)cc1)SCC(=O)N2 (configuration not stated)
viability at 48 h, 1 mg/mL [1]: 157% | inhibition of growth at 1000 µg/mL (HCT-116): 63%

Source: ChEMBL document CHEMBL1933012, “Design and diversity-oriented synthesis of novel 1,4-thiazepan-3-ones fused with bioactive heterocyclic skeletons and evaluation of their antioxidant and cytotoxic activities” (Bioorg Med Chem Lett, 2012)
